Results taken from publication PMC10021052, “Novel multivalent S100A8 inhibitory peptides attenuate tumor progression and metastasis by inhibiting the TLR4-dependent pathway” (Cancer Gene Therapy, 2023).
“Also recorded” adds a separate entry of the source. Blank lines part the entries; values can stand above or below the molecule they belong to.

Legend:
TLR4/MD-2 complex = biological target: T1, TLR4/MD-2 complex (Homo sapiens, UniProt O00206+Q9Y6Y9); test: Divalent peptide library screening and ILVIK derivatives, binding to TLR4/MD-2 (ELISA); details: ELISA-based, Fig. 7A, D
T1 construct: TLR4/MD-2 recombinant protein (2 µg/ml) was added to each well
T1 sequence (O00206 24-631 limits assumed): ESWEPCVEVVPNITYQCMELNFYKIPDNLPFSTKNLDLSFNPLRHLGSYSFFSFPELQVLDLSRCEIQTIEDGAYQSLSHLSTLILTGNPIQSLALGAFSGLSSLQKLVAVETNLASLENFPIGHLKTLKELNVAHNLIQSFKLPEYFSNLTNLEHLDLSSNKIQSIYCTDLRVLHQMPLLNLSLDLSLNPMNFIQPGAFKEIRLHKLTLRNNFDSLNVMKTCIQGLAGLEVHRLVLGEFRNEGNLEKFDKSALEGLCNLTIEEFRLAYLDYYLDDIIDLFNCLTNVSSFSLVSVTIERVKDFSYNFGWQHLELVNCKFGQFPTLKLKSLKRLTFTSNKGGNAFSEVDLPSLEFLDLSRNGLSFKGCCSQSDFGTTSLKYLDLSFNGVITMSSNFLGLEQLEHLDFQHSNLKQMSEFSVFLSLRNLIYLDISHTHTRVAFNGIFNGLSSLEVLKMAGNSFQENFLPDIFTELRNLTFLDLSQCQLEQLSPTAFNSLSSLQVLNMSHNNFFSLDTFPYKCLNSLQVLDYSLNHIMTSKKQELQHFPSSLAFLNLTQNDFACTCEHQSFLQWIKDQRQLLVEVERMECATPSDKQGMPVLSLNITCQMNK
T1 sequence (Q9Y6Y9 17-160 partner limits assumed): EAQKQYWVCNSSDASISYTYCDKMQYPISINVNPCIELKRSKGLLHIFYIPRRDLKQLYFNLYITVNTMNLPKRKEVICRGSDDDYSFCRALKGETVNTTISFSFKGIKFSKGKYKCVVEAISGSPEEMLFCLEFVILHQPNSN
Description: Spot synthesis of divalent peptides on a cellulose membrane was performed using a ResPep SL SPOT synthesizer (INTAVIS Bioanalytical Instruments AG, Koeln, Germany) as described previously. Briefly, Fmoc-β-Ala-OH (Watanabe Chemical Industries, Hiroshima, Japan) was used in the first cycle, followed by amino hexanoic acid as a spacer. Fmoc-Lys(Fmoc)-OH (Watanabe Chemical Industries) was used for the next cycle to form two branches in the peptide chain for the subsequent synthesis of the various motifs. The synthesis of each peptide was confirmed by staining the membrane using bromophenol blue (1% in N, N′-dimethylformamide), which reacts with free amino residues. Free amino residues are produced only after the completion of all reactions and before deprotection of the side chain residues. […]
S100A8 recombinant protein was purified as previously described. […] Absorbance OD450/OD650 was measured using a microplate reader (Thermo Fisher Scientific). […] The amount of interleukin-8 (IL-8) or VEGF in the supernatants were analyzed by ELISA kits (R&D Systems, Mineapolis, MN) according to the manufacturer’s instructions.
Fig. 7 Isolation of multivalent S100A8 inhibitory peptides using divalent peptide libraries based on the sequences of peptide3A5. […] The binding affinities to TLR4/MD-2 complex were determined using an ELISA-based assay. […]

S100A8-TLR4/MD-2 complex = test: Competitive inhibition of S100A8-TLR4/MD-2 binding (ELISA, S100A8 immobilized; also immunoprecipitation); design: species or system human; details: for competitive inhibitory activity against TLR4/MD-2, peptide3A5-derived peptides: competitive inhibitory assay, Fig. 7B, E, *P < 0.05 vs TLR4/MD-2/S100A8; for competitive inhibition, potency compared with parent: ELISA, peptide3A5 vs peptide #3 (Fig. 3B), divalent vs monomer (Fig. 4A)
Description: (§1) S100A8 recombinant protein was purified as previously described. These proteins were immobilized on Maxisorp plates (Thermo Fisher Scientific, Waltham, MA, USA), followed by blocking with protein-free blocking buffer (Thermo Fisher Scientific). TLR4/MD-2 recombinant proteins with various concentrations of candidate peptides were then added to the indicated S100A8-immobilized ELISA plates for 2 h. The plates were washed, incubated with anti-TLR4 antibody, and HRP-conjugated secondary antibody, followed by the addition of substrate. The reaction was stopped by addition a 2N H2SO4 solution. Absorbance OD450/OD650 was measured using a microplate reader (Thermo Fisher Scientific). Maxisorp plates were also used for peptide coating. After blocking with protein-free blocking buffer, the coated plates were washed, and TLR4/MD-2 recombinant protein (2 µg/ml) was added to each well. The plates were incubated with a TLR4 antibody followed by horseradish peroxidase (HRP)-labeled anti-rabbit IgG. For detection of IL8 and VEGF in culture supernatants, SW480 cells were pretreated with the indicated peptides, and followed by stimulation with S100A8 for 24 h. The amount of interleukin-8 (IL-8) or VEGF in the supernatants were analyzed by ELISA kits (R&D Systems, Mineapolis, MN) according to the manufacturer’s instructions.
(§2) Fig. 2 Identification of S100A8 binding sites to human TLR4/MD-2. […] TLR4/MD-2 recombinant proteins were immobilized to the ELISA plate. After blocking, a full length or deletion mutant of S100A8 was added to the plate. The more detailed methods are described in Materials and Methods. […] B A series of overlapping S100A8 synthetic peptides. The TLR4/MD-2 recombinant proteins were added to each well of peptide immobilized plates. The affinity to TLR4/MD-2 was determined. Data are shown as mean ± SD. C The competitive activity was determined using ELISA. Data are shown as mean ± SD. D The TLR4/MD-2 was mixed with S100A8 with/without the indicated peptides, and immunoprecipitated using an anti-TLR4 antibody. TLR4 or S100A8 was visualized. Similar results were obtained in three independent experiments. […] Total RNAs from SW480 cells with/without treatment of the peptide candidates were extracted and qPCR analysis was performed using relevant primer sets and SYBR green. Relative expression levels were compared. […] TEXT PRINTED IN THE PICTURE: (A) Full length: TLR4/MD-2 binding: + | (A) S100A8-ΔC: TLR4/MD-2 binding: − | (A) S100A8-N: TLR4/MD-2 binding: −
(§3) Fig. 4 Improvement of competitive inhibition activity by divalent peptide3A5. A The binding capacity was measured at the indicated concentration using an ELISA-based assay. Similar results were obtained in three independent experiments. B SW480 cells were pretreated with 2.5 µM of divalent peptide3A5, and then stimulated with human S100A8 recombinant protein. After 30 min, cell lysates were subjected to western blotting using the indicated antibody. The divalent peptide#3 or peptide3A5 reduced the expression of S100A8-mediated IL-8 (C) and VEGF (D) induction. Total RNAs from SW480 cells with/without treatment of the peptide candidates were extracted and qPCR analysis was performed using relevant primer sets and SYBR green. Relative expression levels were compared. Peptide #3 suppresses S100A8-mediated IL-8(E) and VEGF (F) secretion in SW480 cells.

human TLR4/MD-2 complex [1] = test: ELISA, TLR4/MD-2 binding to immobilized S100A8-derived peptides (overlapping peptides, alanine scan); details: alanine scan on peptide #3, compared with parental peptide#3, peptide3A5 *P = 0.013
Description: as §1, §2
Fig. 3 Identification of high affinity peptides to TLR4/MD-2 using alanine scanning based on the peptide #3 amino acid sequences. A Lists of peptides used for alanine scanning. […] Similar results were obtained in three independent experiments.

[2] = biological target: tetravalent ILVIK (human); test: ELISA; tetravalent ILVIK immobilised; after blocking TLR4/MD-2 proteins added at various concentrations (Fig. 7F)
[3] = test system: SW480-transplanted xenograft; test: Tumor growth in SW480-transplanted xenograft model; type: in vivo, Balb nu/nu mice; details: SW480 xenograft, various concentrations every 3 days, *P < 0.05 vs control
[4] = test system: tumor cells and macrophages; test: Cytokine/chemokine induction in tumor cells and macrophages; type: cell-based; details: possible mechanism scheme, Fig. 7I
human TLR4/MD-2 complex [5] = test: ELISA, S100A8 protein or mutant binding to TLR4/MD-2; details: recombinant S100A8 full length or mutant
Description: as §1
Fig. 2 Identification of S100A8 binding sites to human TLR4/MD-2. […] TLR4/MD-2 recombinant proteins were immobilized to the ELISA plate. After blocking, a full length or deletion mutant of S100A8 was added to the plate. The more detailed methods are described in Materials and Methods. […] B A series of overlapping S100A8 synthetic peptides. The TLR4/MD-2 recombinant proteins were added to each well of peptide immobilized plates. The affinity to TLR4/MD-2 was determined. Data are shown as mean ± SD. C The competitive activity was determined using ELISA. Data are shown as mean ± SD. D The TLR4/MD-2 was mixed with S100A8 with/without the indicated peptides, and immunoprecipitated using an anti-TLR4 antibody. TLR4 or S100A8 was visualized. […]

PKH26-labeled LLC cells = test: Lung dissemination of PKH26-labeled LLC cells in TCM-sensitized mice; type: in vivo, C57BL/6J mice; details: 10 mg/kg i.p. 1 h before last TCM injection; lungs 16 h after cells; 5–6 mice per group; *P < 0.05 vs control
SW480 cells [6] = test: qPCR, S100A8-mediated IL-8 and VEGF mRNA induction in SW480 cells; type: cell-based, human; details: qPCR, normalized to β-actin
Description: SW480 cells were treated with S100A8 in Dulbecco’s Modified Eagle Medium/HamF12 supplemented with 0.1% bovine serum albumin for cytokine induction. Total RNA was extracted using the RNeasy Mini Plus (Qiagen, Hilden, Germany). Complementary DNA was synthesized using the PrimeScript 1st Strand Synthesis kit (Takara Bio, Japan). Quantitative PCR (qPCR) analysis was performed using the PowerUp^TM SYBR^TM Green mixture (Thermo Fisher Scientific) and the StepOnePlus Real Time PCR System (Thermo Fisher Scientific). Gene expression levels were calculated from Ct values, and the relationship between the Ct value and the logarithm of the copy number of a target gene was confirmed to be on a linear line using the corresponding isolated DNA and its serial dilutions as a standard. Thus, the gene expression levels of IL-8 and VEGF were normalized against that of β-actin in each sample. The following primers were used; β-actin, 5′-[…]-3′ and 5′-[…]-3′; IL-8, 5′-[…]-3′ and 5′-[…]-3′; VEGF, 5′-[…]-3′ and 5′-[…]-3′.
as §2, §3

mouse TLR4/MD-2 complex = details: ref [8]; cited from earlier work
SW480 cells [7] = test: ELISA, IL-8 and VEGF secretion of SW480 cells; type: cell-based, human; details: SW480 cells; data not shown
Description: as §1

Molecule: Lys77: peptide #3 with substitution of Lys77 with alanine (FQEFLILVIA)
- affinity for TLR4/MD-2, alanine scanning (human TLR4/MD-2 complex [1]): diminished the S100A8 activity of TLR4/MD-2 binding

Molecule: ILVIK [Divalent ILVIK, divalent peptide with two ILVIK motifs on a monolysine core, N-terminus acetylated]
- tumor growth, multivalent ILVIK [3]: inhibits tumor growth
- tumor growth, multivalent ILVIK ([3]; listed as divalent ILVIK): inhibited tumor growth in subcutaneously transplanted SW480 cells in a dose-dependent manner
- induction of cytokines/chemokines [4]: suppress the induction of cytokines/chemokines in both tumor cells and macrophages
- competitive inhibitory activity against TLR4/MD-2, peptide3A5-derived peptides (S100A8-TLR4/MD-2 complex; listed as deletion mutant of the FQEFA amino acid sequences): sustained the competitive inhibitory activity
- competitive inhibitory activity against TLR4/MD-2, peptide3A5-derived peptides (S100A8-TLR4/MD-2 complex; listed as divalent ILVIK): candidate inhibitor; also recorded: competitively inhibited S100A8 binding to TLR4/MD-2

Molecule: FQEFA [FQEFA dimer, dimer of FQEFA, peptide3A5 with the last five amino acids deleted]
- binding to TLR4/MD-2, peptide3A5-derived peptides (TLR4/MD-2 complex): diminished the capacity of binding to TLR4/MD-2

B1: mouse S100A8: mouse S100A8 protein (protein, UniProt P27005 2-89, looked up)
Protein S100-A8: PSELEKALSNLIDVYHNYSNIQGNHHALYKNDFKKMVTTECPQFVQNINIENLFRELDINSDNAINFEEFLAMVIKVGVASHKDSHKE
- binding to mouse TLR4/MD-2 (mouse TLR4/MD-2 complex): binds to the mouse TLR4/MD-2 complex via the carboxyl-terminal region

Second part, led by results:

- binding to TLR4/MD-2, peptide3A5-derived peptides (TLR4/MD-2 complex): did not perform these activities
Molecule: ILVIK [monomeric ILVIK, monovalent ILVIK peptide, N-terminus acetylated]
- competitive inhibitory activity against TLR4/MD-2, peptide3A5-derived peptides (S100A8-TLR4/MD-2 complex): did not perform these activities; also recorded: failed to obtain the competitive inhibitory activities against the TLR4/MD-2 complex

- Kd [2]: 4.58 to 8.78 nM
Molecule: human TLR4/MD-2 complex (from UniProt O00206 24-839; Q9Y6Y9 19-160)

- binding to human TLR4/MD-2 (in words) (human TLR4/MD-2 complex [5]): binds to human TLR4/MD-2 complex
Molecule: human S100A8: full length human S100A8 recombinant protein

- affinity for TLR4/MD-2, alanine scanning (human TLR4/MD-2 complex [1]): increased the affinity for TLR4/MD-2
- affinity for TLR4/MD-2, alanine scanning (human TLR4/MD-2 complex [1]; listed as Peptide3A5): increased binding affinity to TLR4/MD-2
Molecule: FQEFAILVIK [peptide3A5]
- pulmonary recruitment of PKH26-labeled LLC cells / lung metastasis (PKH26-labeled LLC cells): suppressed the pulmonary recruitment of tumor cells
- S100A8-mediated VEGF induction (mRNA) (SW480 cells [6]): reduced
- S100A8-mediated IL-8 induction (mRNA) (SW480 cells [6]; *P < 0.05 vs S100A8): reduced
- competitive inhibition, potency compared with parent (S100A8-TLR4/MD-2 complex): competed with the S100A8-TLR4/MD-2 complex at a lower dose than peptide #3
- competitive inhibition, potency compared with parent (S100A8-TLR4/MD-2 complex; listed as Peptide3A5): more potent for competitive inhibition on S100A8-TLR4/MD-2 complex than peptide #3

- binding to human TLR4/MD-2 (in words) (human TLR4/MD-2 complex [5]): hardly bound to the TLR4/MD-2 complex
- binding to human TLR4/MD-2 (in words) (human TLR4/MD-2 complex [5]; listed as S100A8Lys77Ala): decreased affinity to TLR4/MD-2
B2: S100A8-Lys77Ala: S100A8-Lys77Ala recombinant protein (protein)
chain: MLTELEKALNSIIDVYHKYSLIKGNFHAVYRDDLKKLLETECPQYIRKKGADVWFKELDINTDGAVNFQEFLILVIAMGVAAHKKSHEESHKE
- IL-8 production, S100A8 mutant (SW480 cells [7]): had no effect on IL-8 production
